Test results as given in PubChem BioAssay (NCI).
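Five compound concentrations were applied to cells in 96-well plates for 48 hours; endpoints were derived by simple linear interpolation of the resulting dose-response curve. GI50 marks 50% less growth. Definition used: TGI = concentration required for complete inhibition of growth.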

Tests used:
Assay in all cases: DTP human tumour cell line panel, 48 h
MOLT-4 leukemia = system: MOLT-4 leukemia
MDA-MB-231 breast = system: MDA-MB-231 breast
HL-60(TB) leukemia = system: HL-60(TB) leukemia
NCI-H522 lung = system: NCI-H522 lung
PC-3 prostate = system: PC-3 prostate
RXF 393 renal = system: RXF 393 renal
RPMI-8226 leukemia = system: RPMI-8226 leukemia
NCI/ADR-RES ovarian = system: NCI/ADR-RES ovarian
OVCAR-4 ovarian = system: OVCAR-4 ovarian
HCT-116 colon = system: HCT-116 colon
NCI-H23 lung = system: NCI-H23 lung
NCI-H460 lung = system: NCI-H460 lung
SK-MEL-2 melanoma = system: SK-MEL-2 melanoma
UACC-62 melanoma = system: UACC-62 melanoma
SF-268 CNS = system: SF-268 CNS
NCI-H226 lung = system: NCI-H226 lung
TK-10 renal = system: TK-10 renal
M14 melanoma = system: M14 melanoma
DU-145 prostate = system: DU-145 prostate
HS 578T breast = system: HS 578T breast
MALME-3M melanoma = system: MALME-3M melanoma
LOX IMVI melanoma = system: LOX IMVI melanoma
MCF7 breast = system: MCF7 breast
OVCAR-3 ovarian = system: OVCAR-3 ovarian
A549 NSCLC = system: A549 NSCLC
K-562 leukemia = system: K-562 leukemia
OVCAR-5 ovarian = system: OVCAR-5 ovarian
MDA-MB-435 = system: MDA-MB-435
SNB-19 CNS = system: SNB-19 CNS
HCT-15 colon = system: HCT-15 colon
HOP-62 NSCLC = system: HOP-62 NSCLC
COLO 205 colon = system: COLO 205 colon
KM12 colon = system: KM12 colon
CCRF-CEM leukemia = system: CCRF-CEM leukemia
SK-MEL-28 melanoma = system: SK-MEL-28 melanoma
HOP-92 NSCLC = system: HOP-92 NSCLC
SR leukemia = system: SR leukemia
SF-539 CNS = system: SF-539 CNS
UACC-257 melanoma = system: UACC-257 melanoma
786-0 renal = system: 786-0 renal
HCC-2998 colon = system: HCC-2998 colon
T-47D breast = system: T-47D breast
SK-MEL-5 melanoma = system: SK-MEL-5 melanoma
EKVX NSCLC = system: EKVX NSCLC
U251 CNS = system: U251 CNS
IGROV1 ovarian = system: IGROV1 ovarian
BT-549 breast = system: BT-549 breast
SN12C renal = system: SN12C renal
CAKI-1 renal = system: CAKI-1 renal
SNB-75 CNS = system: SNB-75 CNS
HT29 colon = system: HT29 colon
OVCAR-8 ovarian = system: OVCAR-8 ovarian
UO-31 renal = system: UO-31 renal
SW-620 colon = system: SW-620 colon
A498 renal = system: A498 renal
SF-295 CNS = system: SF-295 CNS
ACHN renal = system: ACHN renal
SK-OV-3 ovarian = system: SK-OV-3 ovarian

## O=C(O)c1ccc2c3c(ncnc13)-c1ccccc1C2=O
MOLT-4 leukemia
  GI50: > 100 µM
  TGI: > 100 µM
MDA-MB-231 breast
  GI50: > 100 µM
  TGI: > 100 µM
HL-60(TB) leukemia
  GI50: 27.3 µM
  TGI: > 100 µM
NCI-H522 lung
  GI50: 13.8 µM
  TGI: > 100 µM
PC-3 prostate
  GI50: 43.3 µM
  TGI: > 100 µM
RXF 393 renal
  GI50: > 47.2 µM
  TGI: > 100 µM
RPMI-8226 leukemia
  GI50: 51.3 µM
  TGI: > 88.7 µM
NCI/ADR-RES ovarian
  GI50: 42.8 µM
  TGI: > 100 µM
OVCAR-4 ovarian
  GI50: > 100 µM
  TGI: > 100 µM
HCT-116 colon
  GI50: 27.2 µM
  TGI: > 100 µM
NCI-H23 lung
  GI50: 0.796 µM
  TGI: 3.05 µM
NCI-H460 lung
  GI50: 2.43 µM
  TGI: 6.02 µM
SK-MEL-2 melanoma
  GI50: 20.7 µM
  TGI: > 100 µM
UACC-62 melanoma
  GI50: 2.44 µM
  TGI: 6.11 µM
SF-268 CNS
  GI50: 37.1 µM
  TGI: > 100 µM
NCI-H226 lung
  GI50: 4.08 µM
  TGI: > 100 µM
TK-10 renal
  GI50: 21.9 µM
  TGI: > 100 µM
M14 melanoma
  GI50: 1.35 µM
  TGI: 3.05 µM
DU-145 prostate
  GI50: 1.46 µM
  TGI: 2.83 µM
HS 578T breast
  GI50: 1.19 µM
  TGI: 6.28 µM
MALME-3M melanoma
  GI50: 0.517 µM
  TGI: 1.58 µM
LOX IMVI melanoma
  GI50: 1.74 µM
  TGI: 18.5 µM
MCF7 breast
  GI50: 4.14 µM
  TGI: > 100 µM
OVCAR-3 ovarian
  GI50: 31.2 µM
  TGI: > 100 µM
A549 NSCLC
  GI50: 2.23 µM
  TGI: 4.84 µM
K-562 leukemia
  GI50: 42.1 µM
  TGI: > 100 µM
OVCAR-5 ovarian
  GI50: 37.9 µM
  TGI: > 100 µM
MDA-MB-435
  GI50: 1.72 µM
  TGI: 3.59 µM
SNB-19 CNS
  GI50: 3.52 µM
  TGI: > 100 µM
HCT-15 colon
  GI50: 2.47 µM
  TGI: > 48 µM
HOP-62 NSCLC
  GI50: 1.76 µM
  TGI: 3.75 µM
COLO 205 colon
  GI50: 3.25 µM
  TGI: 16.7 µM
KM12 colon
  GI50: 7 µM
  TGI: > 100 µM
CCRF-CEM leukemia
  GI50: > 84.6 µM
  TGI: > 100 µM
SK-MEL-28 melanoma
  GI50: 1.64 µM
  TGI: 4.04 µM
HOP-92 NSCLC
  GI50: > 100 µM
  TGI: > 100 µM
SR leukemia
  GI50: 35.7 µM
  TGI: > 100 µM
SF-539 CNS
  GI50: 8.5 µM
  TGI: > 100 µM
UACC-257 melanoma
  GI50: 8.6 µM
  TGI: > 100 µM
786-0 renal
  GI50: 37 µM
  TGI: > 100 µM
HCC-2998 colon
  GI50: 8.52 µM
  TGI: > 100 µM
T-47D breast
  GI50: > 100 µM
  TGI: > 100 µM
SK-MEL-5 melanoma
  GI50: 1.34 µM
  TGI: 2.65 µM
EKVX NSCLC
  GI50: 51.6 µM
  TGI: > 100 µM
U251 CNS
  GI50: 4.08 µM
  TGI: > 100 µM
IGROV1 ovarian
  GI50: 43.9 µM
  TGI: > 100 µM
BT-549 breast
  GI50: 2.51 µM
  TGI: > 29.9 µM
SN12C renal
  GI50: 4.26 µM
  TGI: > 87.2 µM
CAKI-1 renal
  GI50: > 81.1 µM
  TGI: > 100 µM
SNB-75 CNS
  GI50: 3.21 µM
  TGI: > 21 µM
HT29 colon
  GI50: 3.45 µM
  TGI: > 28 µM
OVCAR-8 ovarian
  GI50: 47.5 µM
  TGI: > 100 µM
UO-31 renal
  GI50: 15.8 µM
  TGI: > 100 µM
SW-620 colon
  GI50: 4.78 µM
  TGI: > 100 µM
A498 renal
  GI50: 1.96 µM
  TGI: 10.9 µM
SF-295 CNS
  GI50: 2.28 µM
  TGI: > 30.6 µM
ACHN renal
  GI50: 25.7 µM
  TGI: > 100 µM
SK-OV-3 ovarian
  GI50: > 89.5 µM
  TGI: > 100 µM

## c1cncc(-c2nc3ccccc3s2)c1
MOLT-4 leukemia
  GI50: 73.7 µM
  TGI: > 100 µM
MDA-MB-231 breast
  GI50: > 100 µM
  TGI: > 100 µM
HL-60(TB) leukemia
  GI50: > 100 µM
  TGI: > 100 µM
NCI-H522 lung
  GI50: > 100 µM
  TGI: > 100 µM
PC-3 prostate
  GI50: > 100 µM
  TGI: > 100 µM
RXF 393 renal
  GI50: 64.7 µM
  TGI: > 100 µM
RPMI-8226 leukemia
  GI50: 99.4 µM
  TGI: > 100 µM
NCI/ADR-RES ovarian
  GI50: > 100 µM
  TGI: > 100 µM
OVCAR-4 ovarian
  GI50: > 100 µM
  TGI: > 100 µM
HCT-116 colon
  GI50: > 100 µM
  TGI: > 100 µM
NCI-H23 lung
  GI50: > 100 µM
  TGI: > 100 µM
NCI-H460 lung
  GI50: > 100 µM
  TGI: > 100 µM
SK-MEL-2 melanoma
  GI50: > 100 µM
  TGI: > 100 µM
UACC-62 melanoma
  GI50: > 100 µM
  TGI: > 100 µM
SF-268 CNS
  GI50: > 100 µM
  TGI: > 100 µM
NCI-H226 lung
  GI50: > 100 µM
  TGI: > 100 µM
TK-10 renal
  GI50: > 100 µM
  TGI: > 100 µM
M14 melanoma
  GI50: > 100 µM
  TGI: > 100 µM
DU-145 prostate
  GI50: > 100 µM
  TGI: > 100 µM
HS 578T breast
  GI50: 50.7 µM
  TGI: > 100 µM
MALME-3M melanoma
  GI50: > 100 µM
  TGI: > 100 µM
LOX IMVI melanoma
  GI50: > 100 µM
  TGI: > 100 µM
MCF7 breast
  GI50: > 100 µM
  TGI: > 100 µM
OVCAR-3 ovarian
  GI50: > 100 µM
  TGI: > 100 µM
A549 NSCLC
  GI50: > 100 µM
  TGI: > 100 µM
K-562 leukemia
  GI50: > 100 µM
  TGI: > 100 µM
OVCAR-5 ovarian
  GI50: > 100 µM
  TGI: > 100 µM
MDA-MB-435
  GI50: > 100 µM
  TGI: > 100 µM
SNB-19 CNS
  GI50: > 100 µM
  TGI: > 100 µM
HCT-15 colon
  GI50: > 100 µM
  TGI: > 100 µM
HOP-62 NSCLC
  GI50: > 100 µM
  TGI: > 100 µM
COLO 205 colon
  GI50: > 100 µM
  TGI: > 100 µM
KM12 colon
  GI50: > 100 µM
  TGI: > 100 µM
SK-MEL-28 melanoma
  GI50: > 100 µM
  TGI: > 100 µM
HOP-92 NSCLC
  GI50: 18 µM
  TGI: > 100 µM
SR leukemia
  GI50: > 100 µM
  TGI: > 100 µM
SF-539 CNS
  GI50: > 100 µM
  TGI: > 100 µM
UACC-257 melanoma
  GI50: > 100 µM
  TGI: > 100 µM
786-0 renal
  GI50: > 100 µM
  TGI: > 100 µM
HCC-2998 colon
  GI50: > 100 µM
  TGI: > 100 µM
T-47D breast
  GI50: > 100 µM
  TGI: > 100 µM
SK-MEL-5 melanoma
  GI50: > 100 µM
  TGI: > 100 µM
EKVX NSCLC
  GI50: 41.2 µM
  TGI: > 100 µM
U251 CNS
  GI50: 97 µM
  TGI: > 100 µM
IGROV1 ovarian
  GI50: 42.6 µM
  TGI: > 100 µM
BT-549 breast
  GI50: 74 µM
  TGI: > 100 µM
SN12C renal
  GI50: > 100 µM
  TGI: > 100 µM
CAKI-1 renal
  GI50: > 100 µM
  TGI: > 100 µM
SNB-75 CNS
  GI50: 58.4 µM
  TGI: > 100 µM
HT29 colon
  GI50: > 100 µM
  TGI: > 100 µM
OVCAR-8 ovarian
  GI50: > 100 µM
  TGI: > 100 µM
UO-31 renal
  GI50: 29.5 µM
  TGI: > 100 µM
SW-620 colon
  GI50: > 100 µM
  TGI: > 100 µM
A498 renal
  GI50: 50.7 µM
  TGI: > 100 µM
SF-295 CNS
  GI50: > 100 µM
  TGI: > 100 µM
ACHN renal
  GI50: 95.1 µM
  TGI: > 100 µM
SK-OV-3 ovarian
  GI50: > 100 µM
  TGI: > 100 µM
